Source: the NIST ThermoML archive (doi:10.1021/je500424b)

Conditions: Gas, Cylindrical cavity resonance method

O=C=O [carbon dioxide]
Conditions	speed of sound [m/s]
260 K, 317.37 kPa	249.8
260 K, 379.95 kPa	249.06
260 K, 434.17 kPa	248.41
260 K, 501.31 kPa	247.6
260 K, 562.69 kPa	246.84
260 K, 626.77 kPa	246.05
260 K, 701.21 kPa	245.12
260 K, 760.19 kPa	244.37
260 K, 822.03 kPa	243.58
260 K, 884.92 kPa	242.76
270 K, 305.05 kPa	254.61
270 K, 362.27 kPa	254.01
270 K, 460.73 kPa	252.96
270 K, 556.68 kPa	251.92
270 K, 644.89 kPa	250.96
270 K, 732.1 kPa	250
270 K, 819.89 kPa	249.01
270 K, 906.73 kPa	248.03
270 K, 977.38 kPa	247.22
280 K, 280.31 kPa	259.38
280 K, 362.38 kPa	258.61
280 K, 453.25 kPa	257.75
280 K, 537.04 kPa	256.95
280 K, 621.46 kPa	256.13
280 K, 692.2 kPa	255.44
280 K, 798.98 kPa	254.39
280 K, 884.2 kPa	253.55
280 K, 981.82 kPa	252.56
290 K, 228.71 kPa	264.19
290 K, 282.86 kPa	263.73
290 K, 355.64 kPa	263.12
290 K, 421.86 kPa	262.56
290 K, 490.56 kPa	261.98
290 K, 571.6 kPa	261.28
290 K, 655.16 kPa	260.56
290 K, 733.65 kPa	259.88
290 K, 819.49 kPa	259.12
300 K, 280.85 kPa	268.06
300 K, 340.26 kPa	267.62
300 K, 415.37 kPa	267.05
300 K, 500.85 kPa	266.39
300 K, 583.49 kPa	265.76
300 K, 663.9 kPa	265.13
300 K, 755.49 kPa	264.42
300 K, 847.25 kPa	263.7
300 K, 927.15 kPa	263.07
300 K, 1017.3 kPa	262.36
304.09 K, 434.91 kPa	268.66
304.09 K, 544.65 kPa	267.86
304.09 K, 772.25 kPa	266.17
304.09 K, 868.88 kPa	265.45
304.09 K, 968.58 kPa	264.69
312.75 K, 394.2 kPa	272.63
312.75 K, 441.68 kPa	272.31
312.75 K, 534.77 kPa	271.69
312.75 K, 636.23 kPa	271
312.75 K, 729.55 kPa	270.37
312.75 K, 858.54 kPa	269.49
312.75 K, 959.38 kPa	268.8
322.75 K, 314.03 kPa	277.28
322.75 K, 412.26 kPa	276.69
322.75 K, 522.36 kPa	276.02
322.75 K, 624.83 kPa	275.4
322.75 K, 735.59 kPa	274.72
322.75 K, 832.63 kPa	274.13
322.75 K, 929.78 kPa	273.53
332.75 K, 316.28 kPa	281.3
332.75 K, 415.5 kPa	280.76
332.75 K, 520.66 kPa	280.19
332.75 K, 544.84 kPa	280.05
332.75 K, 664.72 kPa	279.39
332.75 K, 755.5 kPa	278.89
332.75 K, 857.33 kPa	278.33
332.75 K, 958.15 kPa	277.78

C=CC [propene]
Conditions	speed of sound [m/s]
260 K, 164.45 kPa	238.03
260 K, 185.32 kPa	237.15
260 K, 206.56 kPa	236.23
260 K, 227.97 kPa	235.29
260 K, 248.96 kPa	234.36
260 K, 275.35 kPa	233.17
260 K, 293.11 kPa	232.48
270 K, 144.04 kPa	243.6
270 K, 173.01 kPa	242.51
270 K, 206.19 kPa	241.23
270 K, 236.28 kPa	240.06
270 K, 262.89 kPa	239
270 K, 263.03 kPa	239
270 K, 302.89 kPa	237.39
270 K, 333.53 kPa	236.13
270 K, 361.31 kPa	234.96
270 K, 389.41 kPa	233.76
280 K, 149.29 kPa	247.97
280 K, 188.35 kPa	246.64
280 K, 226.29 kPa	245.31
280 K, 267.79 kPa	243.84
280 K, 308.73 kPa	242.37
280 K, 354.13 kPa	240.69
280 K, 397.57 kPa	239.06
280 K, 438.3 kPa	237.49
280 K, 438.33 kPa	237.49
280 K, 478.89 kPa	235.89
280 K, 519.72 kPa	234.24
280 K, 556.25 kPa	232.73
290 K, 141.01 kPa	252.63
290 K, 199.13 kPa	250.82
290 K, 257.68 kPa	248.96
290 K, 313.39 kPa	247.15
290 K, 372.8 kPa	245.18
290 K, 434.96 kPa	243.06
290 K, 495.22 kPa	240.95
290 K, 553.22 kPa	238.87
290 K, 616.94 kPa	236.51
290 K, 672.07 kPa	234.4
290 K, 677.98 kPa	234.17
290 K, 695.54 kPa	233.48
300 K, 134.71 kPa	257.09
300 K, 182.3 kPa	255.75
300 K, 260.81 kPa	253.49
300 K, 344.4 kPa	251.01
300 K, 425.25 kPa	248.56
300 K, 505.72 kPa	246.04
300 K, 582.66 kPa	243.56
300 K, 661.1 kPa	240.94
300 K, 740.35 kPa	238.22
300 K, 826.4 kPa	235.15
300 K, 903.31 kPa	232.29
300 K, 960.98 kPa	230.07
310 K, 142.07 kPa	261.05
310 K, 235.24 kPa	258.61
310 K, 325.91 kPa	256.18
310 K, 424.89 kPa	253.46
310 K, 520.89 kPa	250.75
310 K, 623.06 kPa	247.76
310 K, 713.38 kPa	245.04
310 K, 810.73 kPa	242.01
310 K, 906.76 kPa	238.9
310 K, 952.69 kPa	237.37
320 K, 142.67 kPa	265.1
320 K, 210.07 kPa	263.49
320 K, 279.66 kPa	261.81
320 K, 349.85 kPa	260.08
320 K, 425.07 kPa	258.19
320 K, 509.07 kPa	256.04
320 K, 596.12 kPa	253.77
320 K, 677.09 kPa	251.6
320 K, 756.59 kPa	249.42
320 K, 834.83 kPa	247.22
320 K, 905.02 kPa	245.21
320 K, 976.94 kPa	243.09
330 K, 151.93 kPa	268.88
330 K, 227.66 kPa	267.22
330 K, 302.35 kPa	265.55
330 K, 380.89 kPa	263.77
330 K, 455.62 kPa	262.04
330 K, 550.82 kPa	259.81
330 K, 642.65 kPa	257.6
330 K, 732.74 kPa	255.39
330 K, 821.61 kPa	253.16
330 K, 912.04 kPa	250.84
330 K, 1001.4 kPa	248.5
